Assay results as given in patent publication US12552792B2, “Solid forms of an FGFR inhibitor and processes for preparing the same” (Incyte Corporation, priority 2018, dated 2026).
Several values for one entry are separate records, joined by “and”; a condition that tells them apart may be missing. Identical values can stand only once.

Key:
[1] = test system: patients with advanced/metastatic or surgically unresectable cholangiocarcinoma; assay: Phase 2 clinical study in advanced/metastatic or surgically unresectable cholangiocarcinoma; details: for median PFS; Median time to events (95% Cl), months: Kaplan-Meier
Excerpt: The study also considers exposure-response analyses for key efficacy and safety parameters.
The study enrolls approximately 100 subjects into Cohort A (FGFR2 translocations), 20 subjects into Cohort B (other FGF/FGFR alterations), and 20 subjects into Cohort C (US only, negative for FGF/FGFR alterations). […] Treatment will start on Day 1. Subjects undergo regular safety assessments during treatment as well as regular efficacy assessments. Subjects are allowed to continue administration in 21-day cycles until documented disease progression or unacceptable toxicity is reported.
One cycle is defined as 21 days.
The study subjects are those with advanced/metastatic or surgically unresectable cholangiocarcinoma with FGFR2 translocations, with other FGF/FGFR alterations, or who are negative for any FGF/FGFR alterations, who failed at least 1 previous treatment.
The key inclusion criteria include men and women, aged 18 or older. The subjects have histologically or cytologically confirmed advanced/metastatic or surgically unresectable cholangiocarcinoma. Subjects in Cohort A have FGFR2 translocations with a documented fusion partner in central laboratory report. Subjects in Cohort B have other FGF/FGFR alterations. Subjects in Cohort C (US only) are negative for FGF/FGFR alterations. Additional key inclusion criteria include radiographically measureable disease per RECIST v. 1.1; documentation of FGF/FGFR gene alteration status; documented disease progression after at least 1 line of prior systemic therapy; ECOG performance status of 0 to 2; a life expectancy greater than or equal to 12 weeks; adequate hepatic function; adequate renal function; serum phosphate≤institutional ULN; and serum calcium within institutional normal range.
The study schedule and procedures include regularly scheduled study visits at the clinical site as part of a 21-day cycle. Study visits begin with a prescreening to obtain FGF/FGFR status if unknown (results within approximately 2 years of screening are valid). Screening takes place on day −28 through day −1. Cycle 1 occurs on days 1, 8, and 15. Cycles 2+ begin on day 1. A safety follow up occurs 30 days (+5 days) from date of last dose. Disease status follow-up occurs every 9 weeks for subjects who discontinue for reasons other than disease progression. There is a survival follow-up every 12 weeks after discontinuation. […] Study visits include sample collection for hematology, chemistry, coagulation, endocrine monitoring, lipids, and urinalysis testing. Additionally, HIV screening (required for subjects outside the US) and hepatitis screening (serology) is done at screening. Pregnancy testing is also be done at screening, Day 1 of every cycle before dose administration, and at end-of-treatment. FGF/FGFR status may be determined locally.
Tumor tissue is evaluated through the central laboratory for confirmation of FGF/FGFR alteration status. Blood samples for population pharmacokinetic analysis and whole blood pharmacodynamics and correlative studies are collected at various time points throughout the study and analyzed at the central laboratory or designee.
Adverse event assessments, vital signs, electrocardiograms, physical examination, ECOG performance status comprehensive eye examination, and tumor and disease response assessments are performed by the investigative site. An objective assessment of disease status is performed at screening. Subsequently, disease status including RECIST radiological response assessment is assessed every 2 cycles for the first 4 cycles and every 3 cycles thereafter. A central radiology group provides centralized reading on all assessments.
The primary endpoint of the study is to determine the objective response rate (ORR) in subjects with FGFR2 translocations based on the central genomics laboratory results.

[2] = Competitive slurry experiments with mixed Compound 1 polymorphs (XRPD); type: physicochemical; details: for Solid State Form after competitive slurry: saturated Form I solution + 5 mg each of Form I through Form XXVI, stirred overnight, XRPD; for Competitive slurry result (form by XRPD): DCM/MeOH (9:1, 0.6 mL), 5 mg each of Form I through Form XXVI
Method: To evaluate the transformation of solid forms of Compound 1, competitive slurry experiments were performed as follows. To the saturated solution of Form I in the solvent as listed in Table 11 was added Form I (5 mg), then 5 mg each of Form II through Form XXVI.
The slurry was stirred overnight, filtered and analyzed by XRPD.
A competitive slurry experiment was conducted in dichloromethane/methanol (9/1) according to the procedure in Table 12. The mixture of forms (Form I through Form XXVI) was converted to Form II after 15 min as shown by XRPD at various time points including 15 mins, 1 h, 18 h and 3 days, which indicated the Form II was consistently obtained.

[3] = Cohort A (FGFR2 translocations), preliminary
[4] = Cohort A (n = 47), independent reviewer
[5] = Cohort B (n = 22), independent reviewer
[6] = Cohort C (n = 18), independent reviewer
[7] = all patients, 13.5 mg QD 2-weeks-on/1-week-off

What does the source list for `CCN1C(=O)N(c2c(F)c(OC)cc(OC)c2F)Cc2cnc3[nH]c(CN4CCOCC4)cc3c21` [Compound 1, 3-(2,6-difluoro-3,5-dimethoxyphenyl)-1-ethyl-8-(morpholin-4-ylmethyl)-1,3,4,7-tetrahydro-2H-pyrrolo[3′,2′:5,6]pyrido[4,3-d]pyrimidin-2-one]?
Alopecia, TEAEs, All Grades, % of patients ([1]; All Cohorts (N = 89)): 41.6%; Alopecia, TEAEs, Grade 3/4, % of patients ([1]; All Cohorts (N = 89)): 0.0%; Alopecia, TRAEs, All Grades, % of patients ([1]; All Cohorts (N = 89)): 37.1%; Alopecia, TRAEs, Grade 3/4, % of patients ([1]; All Cohorts (N = 89)): 0.0%; Arthralgia, TEAEs, All Grades, % of patients ([1]; All Cohorts (N = 89)): 23.6%; Arthralgia, TEAEs, Grade 3/4, % of patients ([1]; All Cohorts (N = 89)): 6.7%; Arthralgia, TRAEs, All Grades, % of patients ([1]; All Cohorts (N = 89)): 11.2%; Arthralgia, TRAEs, Grade 3/4, % of patients ([1]; All Cohorts (N = 89)): 4.5%; Constipation, TEAEs, All Grades, % of patients ([1]; All Cohorts (N = 89)): 30.3%; Constipation, TEAEs, Grade 3/4, % of patients ([1]; All Cohorts (N = 89)): 0.0%; Constipation, TRAEs, All Grades, % of patients ([1]; All Cohorts (N = 89)): 11.2%; Constipation, TRAEs, Grade 3/4, % of patients ([1]; All Cohorts (N = 89)): 0.0%; Decreased appetite, TEAEs, All Grades, % of patients ([1]; All Cohorts (N = 89)): 37.1%; Decreased appetite, TEAEs, Grade 3/4, % of patients ([1]; All Cohorts (N = 89)): 2.2%; Decreased appetite, TRAEs, All Grades, % of patients ([1]; All Cohorts (N = 89)): 24.7%; Decreased appetite, TRAEs, Grade 3/4, % of patients ([1]; All Cohorts (N = 89)): 1.1%; Diarrhea, TEAEs, All Grades, % of patients ([1]; All Cohorts (N = 89)): 39.3%; Diarrhea, TEAEs, Grade 3/4, % of patients ([1]; All Cohorts (N = 89)): 2.2%; Diarrhea, TRAEs, All Grades, % of patients ([1]; All Cohorts (N = 89)): 29.2%; Diarrhea, TRAEs, Grade 3/4, % of patients ([1]; All Cohorts (N = 89)): 2.2%; Dry eye, TEAEs, All Grades, % of patients ([1]; All Cohorts (N = 89)): 20.2%; Dry eye, TEAEs, Grade 3/4, % of patients ([1]; All Cohorts (N = 89)): 1.1%; Dry eye, TRAEs, All Grades, % of patients ([1]; All Cohorts (N = 89)): 13.5%; Dry eye, TRAEs, Grade 3/4, % of patients ([1]; All Cohorts (N = 89)): 1.1%; Dry mouth, TEAEs, All Grades, % of patients ([1]; All Cohorts (N = 89)): 29.2%; Dry mouth, TEAEs, Grade 3/4, % of patients ([1]; All Cohorts (N = 89)): 0.0%; Dry mouth, TRAEs, All Grades, % of patients ([1]; All Cohorts (N = 89)): 23.6%; Dry mouth, TRAEs, Grade 3/4, % of patients ([1]; All Cohorts (N = 89)): 0.0%; Dysgeusia, TEAEs, All Grades, % of patients ([1]; All Cohorts (N = 89)): 36.0%; Dysgeusia, TEAEs, Grade 3/4, % of patients ([1]; All Cohorts (N = 89)): 0.0%; Dysgeusia, TRAEs, All Grades, % of patients ([1]; All Cohorts (N = 89)): 34.8%; Dysgeusia, TRAEs, Grade 3/4, % of patients ([1]; All Cohorts (N = 89)): 0.0%; Edema peripheral, TEAEs, All Grades, % of patients ([1]; All Cohorts (N = 89)): 22.5%; Edema peripheral, TEAEs, Grade 3/4, % of patients ([1]; All Cohorts (N = 89)): 1.1%; Edema peripheral, TRAEs, All Grades, % of patients ([1]; All Cohorts (N = 89)): 3.4%; Edema peripheral, TRAEs, Grade 3/4, % of patients ([1]; All Cohorts (N = 89)): 0.0%; Fatigue, TEAEs, All Grades, % of patients ([1]; All Cohorts (N = 89)): 36.0%; Fatigue, TEAEs, Grade 3/4, % of patients ([1]; All Cohorts (N = 89)): 4.5%; Fatigue, TRAEs, All Grades, % of patients ([1]; All Cohorts (N = 89)): 23.6%; Fatigue, TRAEs, Grade 3/4, % of patients ([1]; All Cohorts (N = 89)): 1.1%; Hyperphosphatemia, TEAEs, All Grades, % of patients ([1]; All Cohorts (N = 89)): 60.7%; Hyperphosphatemia, TEAEs, Grade 3/4, % of patients ([1]; All Cohorts (N = 89)): 0.0%; Hyperphosphatemia, TRAEs, All Grades, % of patients ([1]; All Cohorts (N = 89)): 55.1%; Hyperphosphatemia, TRAEs, Grade 3/4, % of patients ([1]; All Cohorts (N = 89)): 0.0%; Hypophosphatemia, TEAEs, All Grades, % of patients ([1]; All Cohorts (N = 89)): 25.8%; Hypophosphatemia, TEAEs, Grade 3/4, % of patients ([1]; All Cohorts (N = 89)): 13.5%; Hypophosphatemia, TRAEs, All Grades, % of patients ([1]; All Cohorts (N = 89)): 10.1%; Hypophosphatemia, TRAEs, Grade 3/4, % of patients ([1]; All Cohorts (N = 89)): 5.6%; Nausea, TEAEs, All Grades, % of patients ([1]; All Cohorts (N = 89)): 29.2%; Nausea, TEAEs, Grade 3/4, % of patients ([1]; All Cohorts (N = 89)): 0.0%; Nausea, TRAEs, All Grades, % of patients ([1]; All Cohorts (N = 89)): 15.7%; Nausea, TRAEs, Grade 3/4, % of patients ([1]; All Cohorts (N = 89)): 0.0%; Stomatitis, TEAEs, All Grades, % of patients ([1]; All Cohorts (N = 89)): 30.3%; Stomatitis, TEAEs, Grade 3/4, % of patients ([1]; All Cohorts (N = 89)): 3.4%; Stomatitis, TRAEs, All Grades, % of patients ([1]; All Cohorts (N = 89)): 27.0%; Stomatitis, TRAEs, Grade 3/4, % of patients ([1]; All Cohorts (N = 89)): 3.4%; Median OS ([1]; Cohort A (FGFR2 translocations)): 15.8 months; median PFS; Median time to events (95% Cl), months ([1]; Cohort A (FGFR2 translocations), 47 evaluable patients, independent reviewer): 9.2 months and 9.20 (6.44-NE) months; objective response rate (ORR) ([1]; Cohort A (FGFR2 translocations), 47 patients followed >=8 months, 13.5 mg QD 2-weeks-on/1-week-off, independent reviewer, preliminary): 40.4%; Disease control rate (DCR) [1, 3]: 85.1%; median duration of response (DOR) [1, 3]: has not been reached; probability of maintaining response for greater than or equal to six months [1, 3]: 86.2%; Best OR: CR, % of patients [1, 4]: (0.0) %; Best OR: NE, % of patients [1, 4]: (4.3) %; Best OR: PD, % of patients [1, 4]: (10.6) %; Best OR: PR, % of patients [1, 4]: (40.4) %; Best OR: SD, % of patients [1, 4]: (44.7) %; DCR [1, 4]: 85.1%; ORR [1, 4]: 40.4%; PFS Events, % ([1]; Cohort A, 47 evaluable patients): 46.8%; Best OR: CR, % of patients [1, 5]: (0.0) %; Best OR: NE, % of patients [1, 5]: (22.7) %; Best OR: PD, % of patients [1, 5]: (31.8) %; Best OR: PR, % of patients [1, 5]: (0.0) %; Best OR: SD, % of patients [1, 5]: (45.5) %; DCR [1, 5]: 45.5%; ORR [1, 5]: 0%; Median OS ([1]; Cohort B (other FGF/FGFR alterations)): 6.8 months; median PFS; Median time to events (95% Cl), months ([1]; Cohort B (other FGF/FGFR alterations), 22 evaluable patients, independent reviewer): 2.1 months and 2.10 (1.18-6.80) months; Disease control rate (DCR) ([1]; Cohort B (other FGF/FGFR alterations), preliminary): 45.5%; PFS Events, % ([1]; Cohort B, 22 evaluable patients): 77.3%; Best OR: CR, % of patients [1, 6]: (0.0) %; Best OR: NE, % of patients [1, 6]: (22.2) %; Best OR: PD, % of patients [1, 6]: (55.6) %; Best OR: PR, % of patients [1, 6]: (0.0) %; Best OR: SD, % of patients [1, 6]: (22.2) %; DCR [1, 6]: 22.2%; ORR [1, 6]: 0%; Median OS ([1]; Cohort C (negative for FGF/FGFR alterations)): 4.0 months; median PFS; Median time to events (95% Cl), months ([1]; Cohort C (negative for FGF/FGFR alterations), 18 evaluable patients, independent reviewer): 1.7 months and 1.68 (1.38-1.84) months; Disease control rate (DCR) ([1]; Cohort C (negative for FGF/FGFR alterations), preliminary): 22.2%; PFS Events, % ([1]; Cohort C, 18 evaluable patients): 88.9%; patients with TEAEs with a fatal outcome ([1]; all cohorts, none related to study treatment): Five; Grade 3 or greater TEAE abdominal pain [1, 7]: 6.7%; Grade 3 or greater TEAE arthralgia [1, 7]: 6.7%; Grade 3 or greater TEAE hyponatremia [1, 7]: 7.9%; Grade 3 or greater TEAE hypophosphatemia [1, 7]: 13.5%; TEAE alopecia [1, 7]: 41.6%; TEAE decreased appetite [1, 7]: 37.1%; TEAE diarrhea [1, 7]: 39.3%; TEAE dysgeusia [1, 7]: 36.0%; TEAE fatigue [1, 7]: 36.0%; TEAE hyperphosphatemia [1, 7]: 60.7%; tolerability (in words) ([1]; interim analysis, patients with at least 8 months follow up): generally well tolerated; Solid State Form after competitive slurry ([2]; Acetonitrile (1.7 mL)): Form I; Competitive slurry result (form by XRPD) ([2]; stirred for 15 min): Form II; Competitive slurry result (form by XRPD) ([2]; stirred for 60 min): Form II; Competitive slurry result (form by XRPD) ([2]; stirred for 18 h): Form II; Competitive slurry result (form by XRPD) ([2]; stirred for 3 days): Form II; Solid State Form after competitive slurry ([2]; Ethanol (1.7 mL)): Form I; Solid State Form after competitive slurry ([2]; Iso-propanol (1.7 mL)): Form I
